Test results published in patent US11414424B2, “Cardiac sarcomere inhibitors” (Cytokinetics, Inc., priority 2018, dated 2022).

Legend:
[1] = test system: bovine cardiac myofibrils; test: Myofibril assay: PK/LDH-coupled steady-state ATPase activity of skinned bovine cardiac myofibrils; format: biochemical; conditions: Ca2+ activating to 75% of maximal rate
Outline: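 Steady-state ATPase of detergent-skinned bovine left-ventricular myofibrils (1 mg/mL), PK/LDH-coupled NADH read at 340 nm, in PIPES/MgCl2 buffer pH 6.8 with 50 μM ATP, 0.6 mM EGTA and CaCl2 set for 50% or 75% activation. Inhibition of activity measured.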

male Sprague Dawley rats = test: Echocardiography assessment of acute pharmacodynamic effect on rat cardiac contractility, oral dosing; format: in vivo
Method: Assessment of in vivo cardiac function by echocardiography was performed in male Sprague Dawley rats under isoflurane (1-3%) anesthesia. 2-D M-mode images of the left ventricle were acquired in the parasternal long-axis view before, during, and after administration of compounds by continuous IV infusion or oral gavage. In vivo fractional shortening was determined by M-mode image analysis with the following calculation: ((End diastolic diameter−end systolic diameter)/end diastolic diameter×100). For continuous IV infusion experiments, three pre-dose baseline M-mode images were taken at 1 minute intervals prior to infusion of compound. Compounds were formulated in 50% Propylene Glycol (PG): 16% Captisol: 10% dimethylacetamide (DMA) and delivered via a jugular vein catheter at the rate of 1 mL/kg/h. During infusion, M-mode images were taken at 5 minute intervals. The infusion was stopped when fractional shortening reached up to a 60% reduction from baseline. Blood samples were taken to determine the plasma concentration of the compounds. Data were reported as an estimated IC50 value, which is the concentration at which fractional shortening is 50% of the pre-dose baseline contractility.
For oral dosing studies, three pre-dose baseline M-Mode images were taken at 1 minute intervals prior to compound administration. Compounds were formulated in a 0.5% hydroxypropyl methylcellulose 2910 (HPMC 2910): 0.1% Tween 80 suspension and delivered as a single dose (5 mL/kg) by oral gavage. At one and four hours post-dose, rats were lightly anesthetized for M-mode echocardiography measurement. The compound effect on cardiac fractional shortening are presented as a percent reduction of baseline fractional shortening (=100%) in Table D.
Concurrent with echocardiography measurements, blood samples are taken to determine the corresponding compound plasma concentration, which may be represented as IC50 and IC10 values, which is the concentration at which fractional shortening is 50% and 10% of the pre-dose baseline contractility, respectively.

Structure (SMILES) | CDMF75 IC15 [1] | further results
N#Cc1ccc(N2CC(=O)N(Cc3ccc(C(F)(F)F)cc3)C3(CN(C=O)C3)C2=O)c(F)c1 [Compound 179, 3-fluoro-4-(2-formyl-6,9-dioxo-5-(4-(trifluoro-methyl)benzyl)-2,5,8-triazaspiro[3.5]nonan-8-yl)benzonitrile] | 0.3 µM | FS (% reduction from baseline) at 1 h (Mean ± SEM) (male Sprague Dawley rats; 3 mg/kg oral): 33.8 ± 2.6%; FS (% reduction from baseline) at 4 h (Mean ± SEM) (male Sprague Dawley rats; 3 mg/kg oral): 4.5 ± 4.2%; FS (% reduction from baseline) at 1 h (Mean ± SEM) (male Sprague Dawley rats; 6 mg/kg oral): 51.9 ± 4.0%; FS (% reduction from baseline) at 4 h (Mean ± SEM) (male Sprague Dawley rats; 6 mg/kg oral): 15.0 ± 5.4%
N#Cc1ccc(N2CC(=O)N(Cc3ccc(C(F)(F)F)cc3)C3(CC3)C2=O)c(F)c1 [Compound 278, 4-(5,8-dioxo-4-(4-(trifluoromethyl)benzyl)-4,7-diazaspiro[2.5]octan-7-yl)-3-fluorobenzonitrile] | 0.5 µM | FS (% reduction from baseline) at 1 h (Mean ± SEM) (male Sprague Dawley rats; 3 mg/kg oral): 15.8 ± 2.0%; FS (% reduction from baseline) at 4 h (Mean ± SEM) (male Sprague Dawley rats; 3 mg/kg oral): 10.6 ± 5.6%; FS (% reduction from baseline) at 1 h (Mean ± SEM) (male Sprague Dawley rats; 6 mg/kg oral): 34.4 ± 3.3%; FS (% reduction from baseline) at 4 h (Mean ± SEM) (male Sprague Dawley rats; 6 mg/kg oral): 12.2 ± 4.2%
Cc1ccc(CN2C(=O)CN(c3ncc(Cl)cc3F)C(=O)[C@@H]2C23CC(C(N)=O)(C2)C3)cc1 [Compound 823, (S)-3-(4-(5-chloro-3-fluoropyridin-2-yl)-1-(4-methylbenzyl)-3,6-dioxopiperazin-2-yl)bicyclo[1.1.1]pentane-1-carboxamide] | 2.3 µM | –
Cc1ccc(CN2C(=O)CN(c3ncc(Cl)cc3F)C(=O)[C@H]2C23CC(C(N)=O)(C2)C3)cc1 [Compound 824, (R)-3-(4-(5-chloro-3-fluoropyridin-2-yl)-1-(4-methylbenzyl)-3,6-dioxopiperazin-2-yl)-bicyclo[1.1.1]pentane-1-carboxamide] | >39 µM | –
CC(=O)N1CC2(C1)CC1(C2)C(=O)N(c2ncc(Cl)cc2F)CC(=O)N1Cc1ccc(C(F)(F)F)cc1 [Compound 825, 2-acetyl-10-(5-chloro-3-fluoropyridin-2-yl)-7-(4-(trifluoromethyl)benzyl)-2,7,10-triazadispiro-[3.1.56.14]dodecane-8,11-dione] | 0.7 µM | –
CC(=O)N1CC2(C1)CC1(C2)C(=O)N(c2ncc(Cl)cc2F)CC(=O)N1Cc1ccc(C(F)F)cc1 [Compound 826, 2-acetyl-10-(5-chloro-3-fluoropyridin-2-yl)-7-(4-(difluoromethyl)benzyl)-2,7,10-triazadispiro-[3.1.56.14]dodecane-8,11-dione] | 1.26 µM | –
CC(=O)N1CC2(C1)CC1(C2)C(=O)N(c2ncc(Cl)cc2F)CC(=O)N1Cc1ccc(F)cc1 [Compound 827, 2-acetyl-10-(5-chloro-3-fluoropyridin-2-yl)-7-(4-fluorobenzyl)-2,7,10-triazadispiro[3.1.56.14]-dodecane-8,11-dione] | 2.68 µM | –
O=CN1CC2(C1)CC1(C2)C(=O)N(c2ncc(Cl)cc2F)CC(=O)N1Cc1ccc(F)cc1 [Compound 828, 10-(5-chloro-3-fluoro-pyridin-2-yl)-7-(4-fluoro-benzyl)-8,11-dioxo-2,7,10-triazadispiro[3.1.56.14]-dodecane-2-carbaldehyde] | 1.37 µM | –
Cc1ccc(CN2C(=O)CN(c3ncc(Cl)cc3F)C(=O)C23CC2(CN(C=O)C2)C3)cc1 [Compound 830, 10-(5-chloro-3-fluoro-pyridin-2-yl)-7-(4-methyl-benzyl)-8,11-dioxo-2,7,10-triazadispiro[3.1.56.14]-dodecane-2-carbaldehyde] | 1.75 µM | –
CC(=O)N1CC2(C1)CC1(C2)C(=O)N(c2ncc(Cl)cc2F)CC(=O)N1Cc1ccc(Cl)cc1 [Compound 831, 2-acetyl-10-(5-chloro-3-fluoropyridin-2-yl)-7-(4-chlorobenzyl)-2,7,10-triazadispiro[3.1.56.14]-dodecane-8,11-dione] | 0.53 µM | –
NC(=O)C12CC(C3C(=O)N(c4ncc(Cl)cc4F)CC(=O)N3Cc3ccc(Cl)cc3)(C1)C2 (centres unmarked) [Compound 835, 3-(4-(5-chloro-3-fluoropyridin-2-yl)-1-(4-chlorobenzyl)-3,6-dioxopiperazin-2-yl)bicyclo[1.1.1]pentane-1-carboxamide] | 1.64 µM | –
NC(=O)C12CC([C@H]3C(=O)N(c4ncc(Cl)cc4F)CC(=O)N3Cc3ccc(Cl)cc3)(C1)C2 [Compound 836, (S)-3-(4-(5-chloro-3-fluoro-pyridin-2-yl)-1-(4-chloro-benzyl)-3,6-dioxo-piperazin-2-yl)bicyclo-[1.1.1]pentane-1-carboxamide] | 1.42 µM | –
NC(=O)C12CC([C@@H]3C(=O)N(c4ncc(Cl)cc4F)CC(=O)N3Cc3ccc(Cl)cc3)(C1)C2 [Compound 837, (R)-3-(4-(5-chloro-3-fluoro-pyridin-2-yl)-1-(4-chloro-benzyl)-3,6-dioxo-piperazin-2-yl)bicyclo-[1.1.1]pentane-1-carboxamide] | >39 µM | –
O=C1C(C23CC(O)(C2)C3)N(Cc2ccc(C(F)(F)F)cc2)C(=O)CN1c1ncc(Cl)cc1F (centres unmarked) [Compound 838, 1-(5-chloro-3-fluoropyridin-2-yl)-3-(3-hydroxybicyclo[1.1.1]pentan-1-yl)-4-(4-(trifluoromethyl)benzyl)piperazine-2,5-dione] | 3.8 µM | –
O=C1C(C23CC(O)(C2)C3)N(Cc2ccc(Cl)cc2)C(=O)CN1c1ncc(Cl)cc1F (centres unmarked) [Compound 841, 1-(5-chloro-3-fluoropyridin-2-yl)-4-(4-chlorobenzyl)-3-(3-hydroxybicyclo[1.1.1]-pentan-1-yl)piperazine-2,5-dione] | 2.7 µM | –
O=C1C(C23CC(O)(C2)C3)N(Cc2ccc(F)cc2)C(=O)CN1c1ncc(Cl)cc1F (centres unmarked) [Compound 844, 1-(5-chloro-3-fluoropyridin-2-yl)-4-(4-fluorobenzyl)-3-(3-hydroxybicyclo[1.1.1]-pentan-1-yl)piperazine-2,5-dione] | 8.6 µM | –
O=C1C(C23CC(O)(C2)C3)N(Cc2ccc(C(F)F)cc2)C(=O)CN1c1ncc(Cl)cc1F (centres unmarked) [Compound 849, 1-(5-chloro-3-fluoropyridin-2-yl)-4-(4-(difluoromethyl)-benzyl)-3-(3-hydroxy-bicyclo[1.1.1]pentan-1-yl)piperazine-2,5-dione] | 5.7 µM | –
Cc1ccc(CN2C(=O)CN(c3ncc(Cl)cc3F)C(=O)C2C23CC(O)(C2)C3)cc1 (centres unmarked) [Compound 852, 1-(5-chloro-3-fluoropyridin-2-yl)-3-(3-hydroxybicyclo-[1.1.1]pentan-1-yl)-4-(4-methylbenzyl)piperazine-2,5-dione] | 6.5 µM | –
Cc1cc(Cl)cnc1N1CC(=O)N(Cc2ccc(Cl)cc2)C2(CN(c3ccccn3)C2)C1=O [Compound 882, 8-(5-chloro-3-methyl-pyridin-2-yl)-5-(4-chloro-benzyl)-2-(pyridin-2-yl)-2,5,8-triazaspiro[3.5]-nonane-6,9-dione] | 0.3 µM | –
Cc1cc(Cl)cnc1N1CC(=O)N(Cc2ccc(F)cc2)C2(CN(c3ccccn3)C2)C1=O [Compound 883, 8-(5-chloro-3-methyl-pyridin-2-yl)-5-(4-fluoro-benzyl)-2-(pyridin-2-yl)-2,5,8-triazaspiro[3.5]-nonane-6,9-dione] | 0.4 µM | –
Cc1cc(Cl)cnc1N1CC(=O)N(Cc2ccc(Cl)cc2)C2(CN(c3ccc(F)cn3)C2)C1=O [Compound 884, 8-(5-chloro-3-methyl-pyridin-2-yl)-5-(4-chloro-benzyl)-2-(5-fluoropyridin-2-yl)-2,5,8-triazaspiro[3.5]-nonane-6,9-dione] | 0.5 µM | –
Cc1cc(Cl)cnc1N1CC(=O)N(Cc2ccc(F)cc2)C2(CN(c3ccc(F)cn3)C2)C1=O [Compound 885, 8-(5-chloro-3-methyl-pyridin-2-yl)-5-(4-fluoro-benzyl)-2-(5-fluoropyridin-2-yl)-2,5,8-triazaspiro-[3.5]nonane-6,9-dione] | 0.5 µM | –
Cc1cc(Cl)cnc1N1CC(=O)N(Cc2ccc(Cl)cc2)C2(CN(c3ccc(C#N)cn3)C2)C1=O [Compound 886, 6-(8-(5-chloro-3-methyl-pyridin-2-yl)-5-(4-chloro-benzyl)-6,9-dioxo-2,5,8-triazaspiro[3.5]nonan-2-yl)nicotinonitrile] | 0.7 µM | –
Cc1cc(Cl)cnc1N1CC(=O)N(Cc2ccc(F)cc2)C2(CN(c3ccc(C#N)cn3)C2)C1=O [Compound 887, 6-(8-(5-chloro-3-methyl-pyridin-2-yl)-5-(4-fluoro-benzyl)-6,9-dioxo-2,5,8-triazaspiro[3.5]nonan-2-yl)nicotinonitrile] | 0.9 µM | –
